Molecular target: T1, human serum albumin (HSA) (Homo sapiens, UniProt P02768)
T1 construct: gene ALB
Experiment: fluorescence turn-on titration with HSA (one-site fit), Job's plot […], displacement assay
Assay type: binding

T1 sequence (P02768 25-609): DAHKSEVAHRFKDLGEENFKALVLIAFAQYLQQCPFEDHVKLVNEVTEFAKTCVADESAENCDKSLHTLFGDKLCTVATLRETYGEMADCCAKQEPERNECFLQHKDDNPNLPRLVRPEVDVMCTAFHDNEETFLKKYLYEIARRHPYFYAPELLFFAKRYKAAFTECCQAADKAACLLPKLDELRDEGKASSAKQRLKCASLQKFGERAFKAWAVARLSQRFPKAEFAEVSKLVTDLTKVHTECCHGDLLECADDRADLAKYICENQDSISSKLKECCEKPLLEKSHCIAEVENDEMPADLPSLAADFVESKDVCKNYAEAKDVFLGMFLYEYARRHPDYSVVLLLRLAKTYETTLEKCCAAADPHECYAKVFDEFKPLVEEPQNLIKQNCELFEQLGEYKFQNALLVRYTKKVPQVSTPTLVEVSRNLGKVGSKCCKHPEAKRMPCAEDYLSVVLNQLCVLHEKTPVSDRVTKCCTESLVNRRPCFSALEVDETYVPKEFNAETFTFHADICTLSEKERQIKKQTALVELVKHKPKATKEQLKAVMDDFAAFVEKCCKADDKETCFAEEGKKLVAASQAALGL

- Kd: 15.4 ± 3.3 µM
SMILES: CN(C)c1ccc(/C=C/C=C/C=C(\C#N)C(=O)c2cccc(Cl)c2)s1 [compound 5, (2E,4E,6E)-2-(3-chlorobenzoyl)-7-(5-(dimethylamino)thiophen-2-yl)hepta-2,4,6-trienenitrile]
